Data as given in patent US20230113944A1, “COMPOSITIONS AND METHODS FOR THE TREATMENT OF NEURODEGENERATIVE DISEASES” (priority 2020, published 2023).
“And” between values parts separate entries of the source, which are not always exact repeats. Equal entries are not always repeated. “Also recorded” adds a separate entry of the source.

Tests used:
[1] = test system: HEK293T Tau RD P301S FRET biosensor (tau biosensor) cells; assay: Donor plus Recipient (D+R) tau propagation assay; type: cell-based; conditions: 20 μM
Description: HEK293T Tau RD P301S FRET biosensor (tau biosensor) cells were grown in Dulbecco's Modified Eagle's medium (DMEM) with high glucose, 10% FBS, and 1% Penicillin-streptomycin at 37° C./5% CO2. The lead inhibitors were tested in functional tau propagation “D+R” (Donors plus Recipients) and EMT (EV-mediated transfer) assays using the tau biosensors. Briefly, tau aggregation in donor cells (D) was induced by transfection of tau biosensor cells with human AD brain derived synaptosomal extracts (35 μg of synaptosomal fraction for 5 million cells in one 10 cm dish); control cells were treated with corresponding amount of transfection reagent lipofectamine 2000. After 24 hr incubation, the cells were trypsinized and plated together with DID-labeled recipient cells (R) in a 1:1 ratio in 96-well plates (15,000 of each cell type per well) for D+R assay or 1.5 million of donor cells per well in 6-well plates for EMT assay. Tested compounds or a corresponding amount of DMSO (0.2%) was added to the cell culture medium, DMEM, which contained 10% of exosome-depleted FBS (ThermoFisher, A2720803). Four technical replicates were used for each experimental condition. The inhibitors were tested at 20 μM concentration. […] Tau seed transfer from donor to recipient cells results in FRET signal generation in the DID-positive recipient cells, which was measured by flow cytometry. Integrated FRET density was calculated in the top 30% of DID-positive cell based on DID signal intensity.
(§1) An Attune NxT Flow Cytometer (Invitrogen) equipped with an autosampler and FRET-compatible laser lines and filter sets was used for FRET signal detection. The FRET (CFP/YFP) signal was excited by a 405 nm laser for CFP excitation and detected in the YFP image detection channel. Flow cytometry data was analyzed using FCS Express version 5 software (DeNovo Software California, USA). Integrated FRET density was calculated as a product of percentage FRET positive cells and median of fluorescent intensity of the FRET positive cells as previously established.

[2] = test system: Tau P301S (PS19 line) tauopathy mouse model; assay: Rapid in vivo assay: IL1β-induced brain EV release; parameters: species or system mice
[3] = Parallel artificial membrane permeability (IAM column) prediction of CNS permeability; type: in vitro ADME; conditions: PAMPA, 2 mM
Description: To predict the potential for brain permeability, a Regis Technologies analytical column connected to an Agilent HPLC system (Infinity 1260 quaternary pump and multiple wavelength detector; 1200 autosampler) was used. An IAM.PC.DD column was (4.6 mm i.d.×10 cm, particle size 5 μm; pore size 300 Å) conditioned with 20 column volumes of mobile phase or until a stable line was achieved. A mobile phase with a consistent flow rate of 1 mL/min was used comprising 100 mM Na2PO4 (solvent A) and acetonitrile (solvent B); compounds were eluted using a gradient (min/% B: 0/30, 10/60, 11/30, 15/30). Detector settings were 220, 250 and 280 nm and acquisition time was 15 min. The autosampler injected 10 μL of compound at 2 mM final, diluted from 10 mM in DMSO in 70:30 (water:acetonitrile). After elution, compound retention and void volume times were obtained from the chromatogram. The IAM capacity factor: (KIAM) was calculated using the equation: […]
where tr is the retention time of a compound and t0 is the void volume time of the column. To predict CNS permeability, we used the correlation described by the formula below.

[4] = test system: HEK293T Tau RD P301S FRET biosensor (tau biosensor) cells; assay: EV-mediated tau seed transfer (EMT) assay; type: cell-based; conditions: 20 μM
Description: HEK293T Tau RD P301S FRET biosensor (tau biosensor) cells were grown in Dulbecco's Modified Eagle's medium (DMEM) with high glucose, 10% FBS, and 1% Penicillin-streptomycin at 37° C./5% CO2. The lead inhibitors were tested in functional tau propagation “D+R” (Donors plus Recipients) and EMT (EV-mediated transfer) assays using the tau biosensors. Briefly, tau aggregation in donor cells (D) was induced by transfection of tau biosensor cells with human AD brain derived synaptosomal extracts (35 μg of synaptosomal fraction for 5 million cells in one 10 cm dish); control cells were treated with corresponding amount of transfection reagent lipofectamine 2000. After 24 hr incubation, the cells were trypsinized and plated together with DID-labeled recipient cells (R) in a 1:1 ratio in 96-well plates (15,000 of each cell type per well) for D+R assay or 1.5 million of donor cells per well in 6-well plates for EMT assay. Tested compounds or a corresponding amount of DMSO (0.2%) was added to the cell culture medium, DMEM, which contained 10% of exosome-depleted FBS (ThermoFisher, A2720803). Four technical replicates were used for each experimental condition. The inhibitors were tested at 20 μM concentration. In 48 hours 50 μL of culture medium per well were collected for cell viability test (Cytotox 96 non-radioactive cytotoxicity assay, Promega Corp., Madison, Wis.). The cells in D+R assay were harvested at the 48 hr time point and fixed with 2% paraformaldehyde for flow cytometry analysis according to published protocol. Tau seed transfer from donor to recipient cells results in FRET signal generation in the DID-positive recipient cells, which was measured by flow cytometry. Integrated FRET density was calculated in the top 30% of DID-positive cell based on DID signal intensity.
For the EMT assay, cell culture medium from donor cells growing for 48 hours with the compounds at concentrations of 20 μM or a corresponding amount of DMSO (0.2%), was collected and EVs were purified using the ExoQuick-TC kit (SBI biosciences) according to the manufacturer's instructions. Naïve recipient cells were plated in 96 well plates at a density of 20,000 cells per well in exosome-free medium and transfected with donor cell-derived exosomes at 12 hrs. The recipient cells were harvested 60 hours after transfection and FRET signals were analyzed using flow cytometry.
as §1, with “The FRET (CFP/YFP) signal was excited by a 405 nm laser for CFP excitation and detected in the YFP image detection channel.” left out

[5] = test system: HEK293T Tau RD P301S FRET biosensor (tau biosensor) cells; assay: EV-mediated tau seed transfer (EMT) assay; type: cell-based; conditions: 20 μM; remark: listed apart in the source
[6] = test system: donor cells (tau biosensor cells); assay: Donor cell number and viability in EMT assay; type: cell-based; conditions: 48 hours after sub-culture, 20 μM, vs DMSO
Description: HEK293T Tau RD P301S FRET biosensor (tau biosensor) cells were grown in Dulbecco's Modified Eagle's medium (DMEM) with high glucose, 10% FBS, and 1% Penicillin-streptomycin at 37° C./5% CO2. The lead inhibitors were tested in functional tau propagation “D+R” (Donors plus Recipients) and EMT (EV-mediated transfer) assays using the tau biosensors. Briefly, tau aggregation in donor cells (D) was induced by transfection of tau biosensor cells with human AD brain derived synaptosomal extracts (35 μg of synaptosomal fraction for 5 million cells in one 10 cm dish); control cells were treated with corresponding amount of transfection reagent lipofectamine 2000. After 24 hr incubation, the cells were trypsinized and plated together with DID-labeled recipient cells (R) in a 1:1 ratio in 96-well plates (15,000 of each cell type per well) for D+R assay or 1.5 million of donor cells per well in 6-well plates for EMT assay. Tested compounds or a corresponding amount of DMSO (0.2%) was added to the cell culture medium, DMEM, which contained 10% of exosome-depleted FBS (ThermoFisher, A2720803). […] Tau seed transfer from donor to recipient cells results in FRET signal generation in the DID-positive recipient cells, which was measured by flow cytometry. Integrated FRET density was calculated in the top 30% of DID-positive cell based on DID signal intensity.

Human AChE = biological target: T1, Human AChE (Homo sapiens, UniProt P22303); assay: biochemical; conditions: read-out: AChE IC50
T1 construct: purchased Sigma
Description: This acetylcholinesterase (AChE) assay is based on an Amplex Red assay kit (Thermo Fisher A12217). Human AChE (Sigma) was used. Briefly, 5 μL of compounds at the desired concentration were loaded into wells of a 384-well plate. Then, 5 μl of human AChE (30 mU/mL) was loaded into each well, followed by the addition of 10 μL of the working solution which contains 400 μM Amplex Red reagent, 2 U/mL HRP, 0.2 U/mL choline oxidase, and 100 μM acetylcholine. The reaction was monitored for 60 minutes and read at 530/590 nm. AChE IC50 was determined by plotting AChE activity as a percentage of DMSO control using GraphPad Prism software.

[7] = Brain pharmacokinetic analysis after SQ dosing
Description: Pharmacokinetic (PK) analysis on the leads 8 and 11 to determine brain permeability using wild type mice was performed. The compounds were subcutaneously (SQ) injected at a dose of 20 mg per kg of body weight (mpk). Brain and plasma samples were collected 1, 2, and 4 hours after dosing.

[8] = biological target: human serum albumin (HSA) (Homo sapiens, UniProt P02768); assay: Binding to human serum albumin (HSA)
Sequence of human serum albumin (HSA) (P02768 25-609): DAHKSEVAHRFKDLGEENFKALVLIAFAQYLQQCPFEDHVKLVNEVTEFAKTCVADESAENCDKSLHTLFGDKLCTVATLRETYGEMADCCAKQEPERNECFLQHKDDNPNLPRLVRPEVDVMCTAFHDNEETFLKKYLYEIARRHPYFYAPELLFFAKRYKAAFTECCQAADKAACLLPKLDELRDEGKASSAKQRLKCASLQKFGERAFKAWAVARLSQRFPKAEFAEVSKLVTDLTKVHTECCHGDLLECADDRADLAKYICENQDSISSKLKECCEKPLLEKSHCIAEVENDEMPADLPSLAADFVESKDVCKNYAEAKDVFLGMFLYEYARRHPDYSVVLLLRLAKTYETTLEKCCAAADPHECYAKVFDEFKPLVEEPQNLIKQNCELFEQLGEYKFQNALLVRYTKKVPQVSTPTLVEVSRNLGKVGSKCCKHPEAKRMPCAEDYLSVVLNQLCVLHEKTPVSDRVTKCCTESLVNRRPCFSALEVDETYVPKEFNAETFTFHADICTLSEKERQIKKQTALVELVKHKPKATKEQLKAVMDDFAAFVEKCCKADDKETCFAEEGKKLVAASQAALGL

T1 sequence (P22303 32-614): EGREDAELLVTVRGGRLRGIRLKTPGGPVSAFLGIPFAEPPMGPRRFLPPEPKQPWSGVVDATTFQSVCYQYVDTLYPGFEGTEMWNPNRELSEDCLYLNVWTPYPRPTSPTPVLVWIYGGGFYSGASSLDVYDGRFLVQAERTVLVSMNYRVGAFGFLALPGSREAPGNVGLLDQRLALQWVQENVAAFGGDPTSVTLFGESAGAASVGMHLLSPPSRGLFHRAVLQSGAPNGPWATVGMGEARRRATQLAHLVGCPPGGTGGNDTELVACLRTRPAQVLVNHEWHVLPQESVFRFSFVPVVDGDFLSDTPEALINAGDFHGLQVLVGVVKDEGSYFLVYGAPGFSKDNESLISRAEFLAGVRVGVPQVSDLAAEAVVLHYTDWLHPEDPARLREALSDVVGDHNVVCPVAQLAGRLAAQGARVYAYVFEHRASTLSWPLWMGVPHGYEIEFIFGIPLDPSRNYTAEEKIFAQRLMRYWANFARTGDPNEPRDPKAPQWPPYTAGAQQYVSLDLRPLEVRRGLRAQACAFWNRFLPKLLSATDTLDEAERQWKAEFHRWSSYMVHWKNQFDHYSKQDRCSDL

In the case of `CN1c2ccc(OC(=O)Nc3cccnc3)cc2[C@]2(C)CCO[C@H]12` [Compound 11], the “decrease of FRET fluorescence density from DMSO-control, D+R assay” value [1] is reported as 19.5%, the “tau seed transfer from donor to recipient cells, D+R assay” value ([1]; 48 hrs) is reported as “suppress tau propagation; also recorded: significantly suppresses” and the “IL1β-induced tau release by exosomes” value ([2]; 20 mg/kg SQ) is reported as “significantly reduced”. The “difference in CD11b levels (microglia-derived exosomes) vs IL1β group” value ([2]; 20 mg/kg SQ) was “not significant”, the “exosome-associated BIN1 upon IL1β stimulation” value ([2]; 20 mg/kg SQ) was “lower” and the “level of astrocyte-derived exosomes (GLAST)” value ([2]; 20 mg/kg SQ, vs IL1β group) was “significantly reduced”. The “exosomal marker CD63 in exosome-enriched F2 fractions” value ([2]; 20 mg/kg SQ, vs IL1β only group) was “significant reduction”, the “IL1β-induced brain EV / exosomal release (small EV concentration, TRPS)” value ([2]; mouse, in vivo, 20 mg/kg) was “diminished IL1β-induced brain EV release; also recorded: suppressed IL1β-induced exosomal release to the control level” and the “CNS perm (PAMPA)” value [3] was 1.8. For the same compound, the “decrease of FRET fluorescence density from DMSO-control, EMT assay” value [4] was 41.3%, the “tau seed transfer from donor to recipient cells, EMT assay” value ([4]; donor cells 48 hrs) was “suppress tau propagation; also recorded: significantly suppresses” and the “EV size distribution of donor-derived EVs (TRPS)” value [5] was “did not affect”. The “concentrations of exosomal-type small EVs from donor cells” value [5] was “decreased”, the “levels of exosomal markers CD63, CD81, and syntenin-1 in donor EVs” value ([5]; vs DMSO control) was “reduced” and the “donor cell numbers or survival” value [6] was “didn't affect”. The IC50 (Human AChE) was 1.7 µM, the “brain penetration (compound levels in brain tissue, LC-MS/MS)” value ([7]; mice, 20 mg/kg SQ) was “penetrated the brain” and the concentration at 1 h ([7]; mouse, in vivo, 20 mg/kg) was 262 ng/g and ~800 nM. The “time of peak brain levels after SQ dosing” value ([7]; wild type mice, 20 mg/kg SQ) was “around one”, the “degree of binding to human serum albumin (HSA)” value [8] was “low degree of binding” and the fraction unbound ([8]; human, human serum albumin) was 0.31.
